# Measured values as given in patent US20220304307A1, “SYNERGISTIC MIXTURES FOR ARTHROPOD TOXICITY AND REPELLENCY” (University of Florida Research Foundation, Incorporated, priority 2019, published 2022).
# Entries after “also recorded” stand apart in the source; their conditions may differ. Where a name gives a salt, the structure may show the parent alone.
# Columns and labels:
# [1] = test system: female Ae. aegypti; experiment: Human arm bite protection assay; assay type: in vivo, Aedes aegypti; details: for MED values Female 10: as E30, volunteer one; for MED values Female 9: as E30, volunteer two; for MED Mean: mean of three human volunteers; for MED values Male 4: minimum amount preventing 99% of bites, treated cloth patch, 1 min in cage, mixtures with TFA 0.047 or TCA 0.094 mg/cm^2
# Experimental: A human bite protection assay was performed according to see if the repellency observed in glass tubes extended to bite protection. The assay was run in accordance with that of Tsikolia et al. (Tsikolia M, Bernier UR, Coy M, Chalaire K, Becnel J, Agramonte N, Tabanca N, Wedge D, Clark G, Linthicum K, Swale D, and J. R. Bloomquist J (2013) Insecticidal and fungicidal properties of novel trifluoromethylphenyl amides. Pestic. Biochem. Physiol. 107, 138-147). Treated cloth patches were worn by human volunteers and the number of blood fed mosquitoes was determined after 1 min spent in a cage with 500 (±10%) female Ae. aegypti. Minimum Effective Dosage (MED in mg/cm^2) is the minimum amount required to prevent 99% of bites in three human volunteers (UF IRB #201602334). Synergist ratio (SR)=MED chemical alone/MED chemical+TFA (0.047 mg/cm^2) or TCA (0.094 mg/cm^2).
# [2] = test system: Orlando insecticide-susceptible strain of Ae. aegypti (female mosquitoes); experiment: Glass tube spatial repellency assay; assay type: in vivo, Aedes aegypti; details: for repellency EC50 (+TFA): applied as mixture with TFA (50 μg/cm^2); for repellency EC50 (+TFA) / repellency EC50 / effect of TFA on repellency, applied as mixture: 1 hr; for synergist ratio SR (EC50 compound alone/EC50 compound+TFA): TFA 50 μg/cm^2 as mixture; for effect of TFA on repellency, applied as mixture: TFA 50 μg/cm^2 + EC20 of test compound (permethrin 30 μg/cm^2); for effect of TFA on repellency, applied side-by-side: TFA 50 μg/cm^2 side-by-side, DEET 18 μg/cm^2; for synergism of repellency with citronella: citronella at its EC20 (20 μg/cm^2); for EC50 (95% CL), repellency of TFA esters: 1 hr exposures, Ae. aegypti females; for spatial repellency in screening: 100 μg/cm^2, 1 hr exposure; for 15 min repellency ratio / 30 min repellency ratio / 1 hr repellency ratio: horizontal tube, 0.5=0% repellency, 0=100% repellency
# Experimental: The following assay was conducted according to the procedures of Jiang et al., 2019 (Jiang S., Yang L, and Bloomquist J (2019) High-throughput screening method for evaluating spatial repellency and vapor toxicity to mosquitoes. Med. Vet. Entomol.). For assessing behavioral repellency (FIG. 1), sixteen female Aedes aegypti mosquitoes were transferred to a glass tube (12.5 cm long, 2.5 cm outer diameter) with the ends covered with netting. Metofluthrin, bifenthrin, permethrin, pyrethrum, transfluthrin, deltamethrin, esfenvalerate, metofluthrin acid, bifenthrin acid, phenothrin acid, transchryanthemic acid, transfluthrin acid, deltamethrin acid, and fenvalerate acid were each dissolved in 1 mL of acetone and serial dilutions ranging from 30-0.01 μg/ml were made. Circular filter papers (5 cm^2) were saturated with 50 μL of each concentration and allowed 10 min for solvent evaporation. The filter papers were then placed in clear conical polypropylene caps and fixed to the end of the glass tubes. The netting prevented mosquito contact with the filter paper. Tubes were then aligned with a mark denoting the midline and the proportion of mosquitoes on the chemically treated side was scored at 15, 30, and 60 min. At the end of the test, the tube was placed in a cage and the ability of the mosquitoes to fly out of the tube was assessed for 30 min. […] This post-test evaluated whether any non-responding mosquitoes (not repelled) was due to intoxication or disorientation from the test chemical. For vapor toxicity, the assay was identical, except that mosquitoes were kept in the tube for 24 hr without the post-test at 1 hr, and the mortality was recorded at 24 hr.
Molecule,MED values Female 10 [1] [mg/cm^2],MED values Female 9 [1] [mg/cm^2],MED Mean [1] [mg/cm^2],MED values Male 4 [1] [mg/cm^2],repellency EC50 (+TFA) [2] [μg/cm^2],repellency EC50 ([2]; compound alone) [μg/cm^2],synergist ratio SR (EC50 compound alone/EC50 compound+TFA) ([2]; repellency),other results
CCCCCCCCCC(C)=O [2-undecanone],0.375,0.187,0.219,0.094,5.1,59,11.6,–
O=Cc1cccc(Oc2ccccc2)c1 [3-phenoxybenzaldehyde],0.750,>0.75,>0.75,>0.75,–,–,–,–
"CCN(CC)C(=O)c1cccc(C)c1 [DEET, N,N-diethyl-m-toluamide, reference compound]",0.011,0.011,0.011,0.011,26,39,1.5,"effect of TFA on repellency, applied as mixture [2]: no statistically significant effect; effect of TFA on repellency, applied side-by-side [2]: synergistic effect was observed; repellency EC50 +TFA(S) ([2]; TFA (50 μg/cm^2) applied side-by-side on halves of the filter): 8.1 μg/cm^2; synergism of repellency with citronella [2]: did not synergize; fold decrease of EC50 by TFA side-by-side ([2]; repellency, TFA 50 μg/cm^2 side-by-side treatment): ~5 fold"
"CCCCCOC(=O)[C@@H]1[C@@H](C=C(Cl)Cl)C1(C)C [GMR 120, nPentyl (1R,3S)-3-(2,2-dichlorovinyl)-2,2-dimethylcyclopropane-1-carboxylate]",–,–,–,–,–,–,–,"EC50 (95% CL), repellency of TFA esters [2]: 10 (7-15) μg/cm^2"
"CC1(C)[C@H](C=C(Cl)Cl)[C@H]1C(=O)OC1CCCC1 [GMR 124, Cyclopentyl (1R,3S)-3-(2,2-dichlorovinyl)-2,2-dimethylcyclopropane-1-carboxylate]",–,–,–,–,–,–,–,"EC50 (95% CL), repellency of TFA esters [2]: 11 (8-15) μg/cm^2"
"CC1(C)[C@H](C=C(Cl)Cl)[C@H]1C(=O)OC1CCC1 [GMR 125, Cyclobutyl (1R,3S)-3-(2,2-dichlorovinyl)-2,2-dimethylcyclopropane-1-carboxylate]",–,–,–,–,–,–,–,"EC50 (95% CL), repellency of TFA esters [2]: 17 (11-27) μg/cm^2"
"CC1(C)[C@H](C=C(Cl)Cl)[C@H]1C(=O)OC1CC1 [GMR 126, Cyclopropyl (1R,3S)-3-(2,2-dichlorovinyl)-2,2-dimethylcyclopropane-1-carboxylate]",–,–,–,–,0.35,8.5,24,"EC50 (95% CL), repellency of TFA esters [2]: 8.5 (5-13) μg/cm^2"
"CCCCN(CCC(=O)OCC)C(C)=O [IR3535, ethyl butylacetylaminopropionate]",0.047,0.047,0.063,0.094,–,–,–,"effect of TFA on repellency, applied as mixture [2]: no statistically significant effect"
"OCc1c(F)c(F)cc(F)c1F [TF-OH, transfluthrin alcohol]",–,–,–,–,41,80,about 2,spatial repellency in screening ([2]; compound alone): significant repellency
"CC1(C)C(C=C(Cl)Cl)C1C(=O)O (stereo not shown) [TFA, transfluthrin acid]",0.094,0.187,0.156,0.187,–,–,–,"repellency of TFA by itself ([2]; TFA alone, 50 μg/cm^2 and higher): no repellent activity by itself; also recorded: no effect; also recorded: inactive by itself; synergism of repellency with citronella [2]: strong positive response; also recorded: Synergistic interactions were discovered"
"CCc1ccc(NC(=O)CSc2nnc(-c3cccnc3)n2CC)cc1 [VUAA-1, 2-(4-Ethyl-5-(pyridin-3-yl)-4H-1,2,4-triazol-3-ylthio)-N-(4-ethylphenyl)acetamide, reference compound]",–,–,–,–,30,>2000,>67,"effect of TFA on repellency, applied side-by-side [2]: synergism disappeared; repellency EC50 +citronella ([2]; co-applied citronella at its EC20 (20 μg/cm^2)): 34 μg/cm^2; repellency at highest concentration tested (words) ([2]; compound alone, 1-2 mg/cm^2): inactive; also recorded: repellency was not observed"
"O=Cc1ccccc1 [benzaldehyde, reference compound]",–,–,–,–,15,118,8,–
"Cc1c(COC(=O)C2C(/C=C(/Cl)C(F)(F)F)C2(C)C)cccc1-c1ccccc1 (stereo not shown) [bifenthrin, Bifenthrin, reference compound]",–,–,–,–,–,–,–,spatial repellency in screening ([2]; compound alone): some repellency at high exposure
"CC1(C)[C@H](C(=O)O[C@H](C#N)c2cccc(Oc3ccccc3)c2)[C@@H]1C=C(Br)Br [deltamethrin, Deltamethrin, reference compound]",–,–,–,–,–,–,–,spatial repellency in screening ([2]; compound alone): inactive as vapor phase repellents
Cc1cccc(C(N)=O)c1 [m-toluamide],–,–,–,–,–,–,–,15 min repellency ratio ([2]; 10 μg/cm^2): 0.50; 30 min repellency ratio ([2]; 10 μg/cm^2): 0.50; 1 hr repellency ratio ([2]; 10 μg/cm^2): 0.38; 15 min repellency ratio ([2]; 100 μg/cm^2): 0.19; 30 min repellency ratio ([2]; 100 μg/cm^2): 0.31; 1 hr repellency ratio ([2]; 100 μg/cm^2): 0.06
"CC/C=C\C[C@H]1C(=O)CC[C@@H]1CC(=O)OC [methyl jasmonate, Methyl (1R,2R)-3-Oxo-2-(2Z)-2-pentenyl-cyclopentaneacetate]",0.75,0.75,>1,>1.5,6,39,6.5,–
COCc1c(F)c(F)c(CO)c(F)c1F [metofluthrin alcohol],–,–,–,–,–,–,–,synergism of repellency with GMR 134 ([2]; alcohol 100 μg/cm^2 mixed with GMR 134 at 2 μg/cm^2): significantly synergized
benzyloxybenzaldehyde,–,–,–,–,–,–,–,15 min repellency ratio ([2]; 10 μg/cm^2): 0.69; 30 min repellency ratio ([2]; 10 μg/cm^2): 0.69; 1 hr repellency ratio ([2]; 10 μg/cm^2): 0.63; 15 min repellency ratio ([2]; 100 μg/cm^2): 0.69; 30 min repellency ratio ([2]; 100 μg/cm^2): 0.81; 1 hr repellency ratio ([2]; 100 μg/cm^2): 0.44
